Measured values taken from US9980973B2, “Bicyclic heterocycle compounds and their uses in therapy” (ASTEX THERAPEUTICS LIMITED, priority 2012, dated 2018).
Counter-ions that a name gives are not always drawn. Like-named read-outs stand apart in the source and are kept apart here.

Tests used:
[1] = target: T1, BIR3 domain of human XIAP (Homo sapiens, UniProt P98170); experiment: XIAP in vitro competitive displacement binding assay (fluorescence polarization); conditions: for inhibition at 0.04 µM: 1 h, PI at 0.04 μM, read-out: Xiap IC50 or PI μM (PI)
T1 construct: BIR3 domain of human XIAP (residues 252-350) fused to a His-tag; His-tag (cleaved yes); made in house; host or cells: Escherichia coli
T1 sequence (P98170 252-350): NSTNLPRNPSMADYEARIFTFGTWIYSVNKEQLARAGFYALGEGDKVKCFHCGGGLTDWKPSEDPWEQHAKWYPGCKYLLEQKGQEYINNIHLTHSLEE

[2] = tested on: EVSA-T (human breast carcinoma); experiment: Anti-proliferative activity, Alamar Blue assay, EVSA-T; format: cell-based; conditions: for EC50: Homo sapiens, EVSA-T
[3] = 72 h, EVSA-T cells, 72 hours, Alamar Blue, read-out: EVSA-T prolif
[4] = read-out: EC50 in EVSA-T cell line assays
[5] = plain number = IC50, average where more than one data point, read-out: Xiap IC50 or PI μM (IC50)
[6] = or at least 50% inhibition of the activity at 0.1 μM, read-out: IC50 in the XIAP assay

Row | SMILES | inhibition at 0.04 µM [1] | EC50 [2, 3] | EC50 [2, 4] | IC50 [1, 5] | IC50 [1, 6] | EVSA-T prolif (% at concentration) ([2]; at 0.001 μM)
1 | CC1N(C[C@H]2CN[C@H](C)CN2CC(=O)N2CC(C)(C)c3ncc(Cc4ccc(F)cc4)cc32)CCOC1(C)C (stereo partly drawn) [Example 32, 1-{6-[(4-Fluorophenyl)methyl]-3,3-dimethyl-1H,2H,3H-pyrrolo[3,2-b]pyridin-1-yl}-2-[(2R,5R)-5-methyl-2-[(2,2,3-trimethylmorpholin-4-yl)methyl]piperazin-1-yl]ethan-1-one dihydrochloride] | 42% | 0.0007 µM | < 1 µM |  |  | 
2 | C[C@@H]1CN(CC(=O)N2CC(C)(C)c3ncc(Cc4ccc(F)cc4)cc32)[C@@H](CN2CCOC[C@@]2(C)CO)CN1 [Example 51, 1-{6-[(4-Fluorophenyl)methyl]-3,3-dimethyl-1H,2H,3H-pyrrolo[3,2-b]pyridin-1-yl}-2-[(2R,5R)-2-{[(3R)-3-(hydroxymethyl)-3-methylmorpholin-4-yl]methyl}-5-methylpiperazin-1-yl]ethan-1-one, dihydrochloride] | 44% | 0.0022 µM | < 1 µM |  |  | 
3 | C[C@@H]1CN(CC(=O)N2CC(C)(C)c3ncc(Cc4ccc(F)cc4)cc32)[C@@H](CN2CCOCC2(C)C(=O)O)CN1 (stereo partly drawn) [Example 59, 4-{[(2R,5R)-1-(2-{6-[(4-Fluorophenyl)methyl]-3,3-dimethyl-1H,2H,3H-pyrrolo[3,2-b]pyridin-1-yl}-2-oxoethyl)-5-methylpiperazin-2-yl]methyl}-3-methylmorpholine-3-carboxylic acid, dihydrochloride] |  | 0.042 µM | < 1 µM | 0.34 µM |  | 
4 | CC(=O)N1CCN(C[C@H]2CN[C@H](C)CN2CC(=O)N2CC(C)(C)c3cnc(Cc4ccc(F)cc4)cc32)[C@H](C)C1 [Example 56, 2-[(2R,5R)-2-{[(2R)-4-Acetyl-2-methylpiperazin-1-yl]methyl}-5-methylpiperazin-1-yl]-1-{6-[(4-fluorophenyl)methyl]-3,3-dimethyl-1H,2H,3H-pyrrolo[3,2-c]pyridin-1-yl}ethan-1-one, dihydrochloride] | 70% | 0.00042 µM | < 1 µM |  |  | 
5 | C[C@@H]1CN(CC(=O)N2CC(C)(C)c3nnc(Cc4ccc(F)cc4)cc32)[C@@H](CN2[C@H](C)COC[C@H]2C)CN1 [Example 87, 2-[(2R,5R)-2-{[(3R,5R)-3,5-Dimethylmorpholin-4-yl]methyl}-5-methylpiperazin-1-yl]-1-{3-[(4-fluorophenyl)methyl]-7,7-dimethyl-5H,6H,7H-pyrrolo[3,2-c]pyridazin-5-yl}ethan-1-one dihydrochloride] |  | 0.00066 µM | < 1 µM | 0.14 µM |  | 
6 | C[C@@H]1CN(CC(=O)N2CC(C)(C)c3ncc(Cc4ccc(F)cc4)cc32)[C@@H](CN2CCNC(=O)[C@H]2C)CN1 [Example 35, (3R)-4-{[(2R,5R)-1-(2-{6-[(4-Fluorophenyl)methyl]-3,3-dimethyl-1H,2H,3H-pyrrolo[3,2-b]pyridin-1-yl}-2-oxoethyl)-5-methylpiperazin-2-yl]methyl}-3-methylpiperazin-2-one] | 54% | 0.0019 µM | < 1 µM |  | < 0.1 µM | 
7 | C[C@@H]1CN(CC(=O)N2CC(C)(C)c3ncc(Cc4ccc(F)cc4)cc32)[C@@H](CN2C[C@@H](C)N[C@@H](C)C2)CN1 [Example 22, 2-[(2R,5R)-2-{[(3R,5S)-3,5-Dimethylpiperazin-1-yl]methyl}-5-methylpiperazin-1-yl]-1-{6-[(4-fluorophenyl)methyl]-3,3-dimethyl-1H,2H,3H-pyrrolo[3,2-b]pyridin-1-yl}ethan-1-one dihydrochloride] | 40% | 0.03 µM | < 1 µM |  |  | 
8 | CCCC(O)c1cnc2c(c1)N(C(=O)CN1C[C@@H](C)NC[C@@H]1CN1[C@H](C)COC[C@H]1C)CC2(C)C (single isomer, unassigned) [Example 101, 2-[(2R,5R)-2-{[(3R,5R)-3,5-Dimethylmorpholin-4-yl]methyl}-5-methylpiperazin-1-yl]-1-[6-(1-(R or S)-hydroxybutyl)-3,3-dimethyl-1H,2H,3H-pyrrolo[3,2-b]pyridin-1-yl]ethan-1-one dihydrochloride] | 47% | 0.031 µM | < 1 µM |  |  | 
9 | C[C@@H]1CN(CC(=O)N2CC(C)(C)c3ncc(Cc4ccc(F)cc4)cc32)[C@@H](CN2CCN(C)C(=O)[C@H]2C)CN1 [Example 34, (3R)-4-{[(2R,5R)-1-(2-{6-[(4-Fluorophenyl)methyl]-3,3-dimethyl-1H,2H,3H-pyrrolo[3,2-b]pyridin-1-yl}-2-oxoethyl)-5-methylpiperazin-2-yl]methyl}-1,3-dimethylpiperazin-2-one dihydrochloride] | 42% | 0.00085 µM | < 1 µM |  |  | 
10 | C[C@@H]1CN(CC(=O)N2CC(C)(C)c3ncc(Cc4ccc(F)cc4)cc32)[C@@H](CN2CCOC[C@]2(C)CO)CN1 [Example 50, 1-{6-[(4-Fluorophenyl)methyl]-3,3-dimethyl-1H,2H,3H-pyrrolo[3,2-b]pyridin-1-yl}-2-[(2R,5R)-2-{[(3S)-3-(hydroxymethyl)-3-methylmorpholin-4-yl]methyl}-5-methylpiperazin-1-yl]ethan-1-one, dihydrochloride] | 44% | 0.0013 µM | < 1 µM |  |  | 
11 | CCCC(F)(F)c1cc2c(cn1)C(C)(C)CN2C(=O)CN1C[C@@H](C)NC[C@@H]1CN1CCOC[C@@]1(C)CO (single isomer, unassigned) [Example 68, dihydrochloride] | 69% | 0.022 µM | < 1 µM |  |  | 
12 | CC1COCCN1C[C@H]1CN[C@H](C)CN1CC(=O)N1CC(C)(C)c2ccc(Cc3ccc(F)cc3)cc21 (stereo partly drawn) [Example 45, 1-{6-[(4-Fluorophenyl)methyl]-3,3-dimethyl-2,3-dihydro-1H-indol-1-yl}-2-[(2R,5R)-5-methyl-2-{[(3R)-3-methylmorpholin-4-yl]methyl}piperazin-1-yl]ethan-1-one, dihydrochloride] | 52% | 0.0035 µM | < 1 µM |  |  | 
13 | CC(=O)N1CCN(C[C@H]2CN[C@H](C)CN2CC(=O)N2CC(C)(C)c3ncc(Cc4ccc(F)cc4)cc32)[C@H](C)C1 [Example 52, 2-[(2R,5R)-2-{[(2R)-4-Acetyl-2-methylpiperazin-1-yl]methyl}-5-methylpiperazin-1-yl]-1-{6-[(4-fluorophenyl)methyl]-3,3-dimethyl-1H,2H,3H-pyrrolo[3,2-b]pyridin-1-yl}ethan-1-one, dihydrochloride] | 49% | 0.001 µM | < 1 µM |  |  | 
14 | C[C@@H]1CN(CC(=O)N2CC(C)(C)c3cnc(Cc4ccc(F)cc4F)cc32)[C@@H](CN2CCOC[C@]2(C)CO)CN1 (single isomer, unassigned) [Example 66, dihydrochloride] | 78% | 0.0008 µM | < 1 µM |  |  | 
15 | C[C@@H]1CN(CC(=O)N2CC(C)(C)c3ncc(Cc4ccc(F)cc4)cc32)[C@@H](CN2CCCNC(=O)C2)CN1 [Example 46, 4-{[(2R,5R)-1-(2-{6-[(4-Fluorophenyl)methyl]-3,3-dimethyl-1H,2H,3H-pyrrolo[3,2-b]pyridin-1-yl}-2-oxoethyl)-5-methylpiperazin-2-yl]methyl}-1,4-diazepan-2-one, dihydrochloride] |  | 0.036 µM | < 1 µM | 0.13 µM |  | 
16 | C[C@@H]1CN(CC(=O)N2CC(C)(C)c3ncc(Cc4ccc(F)cc4F)cc32)[C@@H](CN2[C@H](C)COC[C@H]2C)CN1 [Example 54, 1-{6-[(2,4-Difluorophenyl)methyl]-3,3-dimethyl-1H,2H,3H-pyrrolo[3,2-b]pyridin-1-yl}-2-[(2R,5R)-2-{[(3R,5R)-3,5-dimethylmorpholin-4-yl]methyl}-5-methylpiperazin-1-yl]ethan-1-one, dihydrochloride] | 59% |  | < 1 µM |  |  | 96% at
17 | C[C@@H]1CN(CC(=O)N2CC(C)(C)c3ncc(Cc4ccc(F)cc4)cc32)[C@@H](CN2CC3CC2CO3)CN1 (stereo partly drawn) [Example 20, 1-{6-[(4-Fluorophenyl)methyl]-3,3-dimethyl-1H,2H,3H-pyrrolo[3,2-b]pyridin-1-yl}-2-[(2R,5R)-5-methyl-2-{2-oxa-5-azabicyclo[2.2.1]heptan-5-ylmethyl}piperazin-1-yl]ethan-1-one dihydrochloride] |  | 0.0028 µM | < 1 µM | 0.14 µM |  | 
18 | C[C@@H]1CN(CC(=O)N2CC(C)(C)c3ncc(Cc4ccc(F)cc4F)cc32)[C@@H](CN2CCOC[C@@]2(C)CO)CN1 [Example 58, 1-{6-[(2,4-Difluorophenyl)methyl]-3,3-dimethyl-1H,2H,3H-pyrrolo[3,2-b]pyridin-1-yl}-2-[(2R,5R)-2-{[(3R)-3-(hydroxymethyl)-3-methylmorpholin-4-l]methyl}-5-methylpiperazin-1-yl]ethan-1-one, dihydrochloride] | 51% | 0.0007 µM | < 1 µM |  | < 0.1 µM | 
19 | C[C@@H]1CN(CC(=O)N2CC(C)(C)c3ncc(Cc4ccccc4)cc32)[C@@H](CN2[C@H](C)COC[C@H]2C)CN1 [Example 29, 1-{6-Benzyl-3,3-dimethyl-1H,2H,3H-pyrrolo[3,2-b]pyridin-1-yl}-2-[(2R,5R)-2-{[(3R,5R)-3,5-dimethylmorpholin-4-yl]methyl}-5-methylpiperazin-1-yl]ethan-1-one dihydrochloride] | 47% | 0.0004 µM | < 1 µM |  |  | 
20 | COC[C@]1(C)COCCN1C[C@H]1CN[C@H](C)CN1CC(=O)N1CC(C)(C)c2cnc(Cc3ccc(F)cc3F)cc21 [Example 97, 1-{6-[(2,4-Difluorophenyl)methyl]-3,3-dimethyl-1H,2H,3H-pyrrolo[3,2-c]pyridin-1-yl}-2-[(2R,5R)-2-{[(3R)-3-(methoxymethyl)-3-methylmorpholin-4-yl]methyl}-5-methylpiperazin-1-yl]ethan-1-one dihydrochloride] | 44% | 0.0023 µM | < 1 µM |  |  | 
